Columns and labels:
[1] = Fluorescence quenching of NBD-labeled cholate oligomers by hydrophilic quencher 11; type: binding
Description: Fluorescence Quenching of the NBD-Labeled Cholate Oligomers 1-4: Typical procedures for the quenching experiment are as follows. Stock solutions (1.0×10^−3 M) of 1-4 in anhydrous THF were prepared. An aliquot (25.0 μL) of the stock solution was diluted by 2.00 mL of carbon tetrachloride with 5 vol. % DMSO in a quartz cuvet. Aliquots (5.0 μL, 0.8 M) of the quencher (11 or 12) in THF were added with a Hamilton Gastight syringe. After each addition, the sample was vortexed for 1 minute before the fluorescence spectrum was recorded. The excitation wavelength was set at 336 nm and the maximum emission intensity at 527 nm was monitored.

[2] = Solvent denaturation of donor-acceptor labeled cholate oligomers followed by FRET (two-state model); type: physicochemical; conditions: for m (in parentheses) / ΔG0 (in parentheses): linear fitting of unfolding free energies (FIG. 12); for m / ΔG0: nonlinear least-squares fitting to two-state model (FIG. 11)
From the text: According to the two-state model, at any given concentration of the denaturant (i.e., DMSO), only the folded and unfolded conformations are present and their fractions are represented by fF and fU. Fraction of the unfolded conformation can be calculated by: fU=(IF−I)/(IF−IU) (2) in which I is the observed emission intensity of the acceptor in a given foldamer, IF is the emission intensity of the acceptor in the fully folded conformer, and IU is the emission intensity of the acceptor in the fully unfolded conformer. The equilibrium constant (Keq) and the free energy (ΔG) for the folding reaction can be calculated using ΔG=RT ln Keq=−RT ln(fU/fF)=−RT ln [fU/(1−fU)] (3)
In order to calculate fractions of the unfolded conformations, both IF and IU must be known for different foldamers. The emission intensity of the acceptor in the 1:1 mixture of the monomer A 8 (MA) and monomer D 9(MD) should be good approximations for IU since the emission intensity of the longer foldamers (e.g., pentamer-DA 5 (PDA)) does converge to that of the (MA+MD) mixture upon unfolding. The value of IF, on the other hand, cannot be obtained directly because none of the three foldamers seem to be fully folded under the initial condition of 1% DMSO.
In general, to obtain the values of IF for PDA, hexamer-DA 6 (HXDA), and heptamer-DA 7 (HPDA), it is useful to first make an assumption for fU (e.g., fU=0.1 for the HPDA) in 1% DMSO and use it to calculate the corresponding value of IF, which is designated IF(1). Using IF(1), the first set of fU(1) can be calculated at different DMSO percentages according to equation 2. In the two-state model, the free energies are linearly related to the concentration of denaturant (i.e., DMSO): ΔG=ΔG0−m[DMSO] (4) in which ΔG0 is the free energy for the folding reaction in the absence of denaturant and m measures how sensitive the folding equilibrium is toward DMSO percentage. From equations 2, 3, and 4, the following equation 5 can be obtained, where equation 5 describes the relationship between fU and DMSO percentage: fU=1/{1+1/exp[−(ΔG0−m[DMSO])/RT]} (5)
As a result, the initial values of ΔG0 and m (which are designated as ΔG0(1) and m1) can be obtained by nonlinear least-squares fitting to the first set of fU(1). The resulting ΔG0(1) and m1 are used to calculate the refined value of IF(2) using equations 5 and 2. This process is repeated as long as there is a fairly large difference between the entering IF(n) value and the resulting IF(n+1) value. In general, fitting of the data improves over several rounds of refinement. The refinement is stopped in the end when the values of IF(n) and IF(n+1) are within 1% of each other and are taken as the final value of IF.
In such data processing, it is assumed that IF was independent of DMSO percentage. Such an assumption is expected to underestimate the stability of the cholate foldamers. This is because the emission of MA is shown to be slightly quenched by DMSO—the emission intensity decreases by about 20% over 1-5% DMSO.
FRET Study of the Donor-Acceptor Labeled Cholate Oligomers 5-9 Stock solutions (2.0×10^−4M) of 5-9 in anhydrous THF were prepared. An aliquot (20.0 μL) of the stock solution was diluted by (a) 2.00 mL of ethyl acetate/hexane (v/v=1.05/2) with 1 vol. % DMSO and (b) […] 2.00 mL of ethyl acetate/hexane (v/v=1/1) with 1 vol. % DMSO in a quartz cuvet. Ten aliquots of DMSO (10.0 μL each) were added to the sample. After each addition, the sample was vortexed for 1 minute before the fluorescence spectrum was recorded. The excitation wavelength was set at 287 nm.

[3] = DMSO in ethyl acetate/hexane (1/1)
[4] = DMSO in ethyl acetate/hexane (1/2)

SMILES | reduction of fluorescence by quencher 11 ([1]; 5.6 mM of 11 in 2% methanol/CCl4) | reduction of fluorescence by quencher 11 ([1]; 5.6 mM of 11 in 5% DMSO/CCl4) | m (in parentheses) [2, 3] | ΔG0 (in parentheses) [2, 3] | m [2, 3] | ΔG0 [2, 3] | m (in parentheses) [2, 4] | ΔG0 (in parentheses) [2, 4] | m [2, 4] | ΔG0 [2, 4]
COC(=O)CCC(C)C1CCC2C3C(O)CC4CC(NC(=O)CCC(C)C5CCC6C7C(O)CC8CC(NC(=O)CCC(C)C9CCC%10C%11C(O)CC%12CC(NC(=O)CCC(C)C%13CCC%14C%15C(O)CC%16CC(NC(=O)CCC(C)C%17CCC%18C%19C(O)CC%20CC(NC(=O)CCC(C)C%21CCC%22C%23C(O)CC%24CC(NC(=O)CCC(C)C%25CCC%26C%27C(O)CC%28CC(Nc%29ccc([N+](=O)[O-])c%30nonc%29%30)CCC%28(C)C%27CC(O)C%25%26C)CCC%24(C)C%23CC(O)C%21%22C)CCC%20(C)C%19CC(O)C%17%18C)CCC%16(C)C%15CC(O)C%13%14C)CCC%12(C)C%11CC(O)C9%10C)CCC8(C)C7CC(O)C56C)CCC4(C)C3CC(O)C12C (stereo not shown) [Compound 4] | 60 fold | < 3 fold |  |  |  |  |  |  |  | 
CC(CCC(=O)Nc1cccc2ccccc12)C1CCC2C3C(O)CC4CC(NC(=O)CCC(C)C5CCC6C7C(O)CC8CC(NC(=O)CCC(C)C9CCC%10C%11C(O)CC%12CC(NC(=O)CCC(C)C%13CCC%14C%15C(O)CC%16CC(NC(=O)CCC(C)C%17CCC%18C%19C(O)CC%20CC(NC(=O)CCC(C)C%21CCC%22C%23C(O)CC%24CC(NS(=O)(=O)c%25cccc%26c(N(C)C)cccc%25%26)CCC%24(C)C%23CC(O)C%21%22C)CCC%20(C)C%19CC(O)C%17%18C)CCC%16(C)C%15CC(O)C%13%14C)CCC%12(C)C%11CC(O)C9%10C)CCC8(C)C7CC(O)C56C)CCC4(C)C3CC(O)C12C (stereo not shown) [Compound 6] |  |  | 0.89 kcal/mol | 1.9 kcal/mol | 0.81 ± 0.06 kcal/mol | 1.8 ± 0.1 kcal/mol | 0.52 kcal/mol | 1.8 kcal/mol | 0.50 ± 0.02 kcal/mol | 1.7 ± 0.1 kcal/mol

Source: patent US7960439B1, “Environmentally sensitive foldable oligomers” (Iowa State University Research Foundation, Inc., priority 2006, dated 2011)
